Experimental data: paper PMC6943527, “Are the Hydantoin-1,3,5-triazine 5-HT6R Ligands a Hope to a Find New Procognitive and Anti-Obesity Drug? Considerations Based on Primary In Vivo Assays and ADME-Tox Profile In Vitro” (Molecules, 2019)

Experiments:
5-HT6 = molecular target: 5-HT6; design: method as in PMID 30282913; conditions: radioligand binding, average of at least two independent experiments; read-out: Ki 5-HT6 [3H]-LSD; cited from earlier work
CYP3A4 = molecular target: T1, CYP3A4 (Homo sapiens, UniProt P08684); assay: CYP3A4 P450-Glo drug-drug interaction assay; assay type: in vitro ADME
T1 construct: purchased Promega (Madison, WI, USA)
T1 sequence (P08684 whole entry): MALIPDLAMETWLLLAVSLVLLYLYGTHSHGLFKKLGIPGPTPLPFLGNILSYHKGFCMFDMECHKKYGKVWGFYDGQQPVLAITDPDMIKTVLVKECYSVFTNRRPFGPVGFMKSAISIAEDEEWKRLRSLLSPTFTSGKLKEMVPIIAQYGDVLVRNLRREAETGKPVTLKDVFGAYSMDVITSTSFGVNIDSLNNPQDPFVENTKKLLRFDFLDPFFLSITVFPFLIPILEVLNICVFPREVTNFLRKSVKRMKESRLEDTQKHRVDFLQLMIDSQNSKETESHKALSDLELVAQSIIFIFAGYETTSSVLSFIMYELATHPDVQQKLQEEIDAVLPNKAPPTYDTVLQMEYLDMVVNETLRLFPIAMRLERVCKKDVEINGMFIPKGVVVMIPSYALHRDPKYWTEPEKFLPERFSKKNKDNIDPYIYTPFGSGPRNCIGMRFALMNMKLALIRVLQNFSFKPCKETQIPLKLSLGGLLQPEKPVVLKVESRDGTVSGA
Protocol: The influence of triazine derivatives on two the most involved in drug metabolism CYP (cytochrome P450) isoforms CYP3A4 and CYP2D6 was also investigated.
The study was performed using the CYP3A4 P450-Glo^TM and CYP2D6 P450-Glo^TM commercial tests provided by Promega (Madison, WI, USA). The influence of compounds on CYPs activity was tested in white polystyrene, flat-bottom Nunc^TM MicroWell^TM 96-well microplates (Thermo Scientific, Waltham, MA USA), and the bioluminescence signal was measured with a microplate reader (EnSpire) in luminescence mode, as described previously. KMP-10 and DJ-18 were tested in triplicate in the range of 0.01–25 µM for both isoforms’ P450 cytochrome. KE and QD were used as the reference compounds for CYP3A4 and CYP2D6, respectively.

[1] = tested on: human embryonic kidney (HEK)-293 cells; design: method as in PMID 30282913; conditions: highest concentration 100 µM; cited from earlier work
[2] = Food and water intake, rats fed standard diet only; assay type: in vivo, male Wistar rats; conditions: 5 mg/kg b.w. i.p., vs control group
Protocol: The experiments were carried out on male Wistar rats. Their initial body weight was 210–230 g. The animals were housed in pairs in plastic cages in constant temperature facilities exposed to a light–dark cycle; water and food were available ad libitum. The control and experimental groups consisted of eight animals each. All experiments were conducted according to the guidelines of the Animal Use and Care Committee of the Jagiellonian University and were approved for realization (2013 and 2015, Poland; Permissions No 136/2013 and 258/2015).
The standard diet contained 100 g of feed—280 kcal.
Male Wistar rats (190–220 g) were housed in pair. The control group (standard diet + vehicle) received vehicle (1% Tween 80, i.p.), while the test group (standard diet + KMP-10 5 mg) was intraperitoneally injected with KMP-10 at the dose 5 mg/kg b.w./day dissolved in 1% Tween 80. The intakes of food and water were evaluated daily.

[3] = design: method as in PMID 30282913; conditions: "conditional" anxiety-like assay; cited from earlier work
5-HT1A = molecular target: 5-HT1A; design: method as in PMID 30282913; conditions: radioligand binding, average of at least two independent experiments; read-out: Ki 5-HT1A [3H]-8-OH-DPAT; cited from earlier work
5-HT2A = molecular target: 5-HT2A; design: method as in PMID 30282913; conditions: radioligand binding, average of at least two independent experiments; read-out: Ki 5-HT2A [3H]-Ketanserin; cited from earlier work
[4] = design: method as in PMID 30530073; conditions: QikProp, Schrödinger Suite; cited from earlier work
[5] = Elevated plus-maze (EPM) test; assay type: in vivo, male Wistar rats; conditions: for Total distance / X Ambulation / Y Ambulation: mean ± SEM
Protocol: The experiments were performed on male Wistar rats (200–220 g) obtained from an accredited animal facility at the Jagiellonian University Medical College, Poland. The animals were housed in group of four in controlled environment (ambient temperature 21 ± 2 °C; relative humidity 50%–60%; 12-h light/dark cycles (lights on at 8:00). Standard laboratory food (LSM-B) and filtered water were freely available. Animals were randomly assigned to treatment groups. All the experiments were performed by two observers unaware of the studied treatment between 9:00 and 14:00 on separate groups of animals. All animals were used only once. Procedures involving animals and their care were conducted in accordance with current European Community and Polish legislation on animal experimentation. Additionally, all efforts were made to minimize animal suffering and to use only the number of animals necessary to produce reliable scientific data. The experimental protocols and procedures described in this manuscript were approved by the I Local Ethics Commission in Cracow (no 200/2018), complied with the European Communities Council Directive of 24 November 1986 (86/609/EEC), and were in accordance with the 1996 National Institutes of Health Guide for the Care and Use of Laboratory Animals.
All compounds were suspended in 1% Tween 80 immediately before administration in a volume of 2 mL/kg. Compounds were intraperitoneally administered 60 min before testing. Control animals received vehicle (1% Tween 80) according to the same schedule.
The testing procedure was based on a method described by. The plus-maze apparatus (an automated device produced by Campden Instruments Ltd. (United Kingdom) was made of durable, high density, non-porous black plastic, elevated to a height of 50 cm, and consisted of two open arms (50 × 10 cm) and two closed arms (50 × 10 cm, and 30 cm high walls) arranged so that the two arms of each type were opposite each other. The floor of the plus-maze was made of infrared transparent material, which means that there were no visible sensors. The plus-maze apparatus was connected to PC software by a control chassis. The experiments were conducted in a darkened room, and only the center of the maze was illuminated with low-intensity light (30 lux measured on the maze level). Each rat was gently placed in the center of the plus-maze, facing one of the closed arms, immediately after a 5-min adaptation period in a plastic black box (60 × 60 × 35 cm), to increase the overall activity in the EPM. During a 5-min test period, an automated motor monitor system recorded the number of entries into the closed and open arms and the time spent in either type of arm. The device counted an effective arm-entry when the four paws of a rat were into any arm. The maze was thoroughly cleaned after each trial. The EPM test is an “unconditional” anxiety-like test based on rodents’ natural aversion to heights and open space.
The experiment was performed using an EPM apparatus (details see above). Total ambulation (the total distance covered by a rat and ambulation along the X and Y axes) was taken into account to discern drug effects on general activity from those on open-arm exploration during a 5-min test period (i.e., the time equal to the observation period in the EPM test). Rats’ behavior was not videotaped during the test.

[6] = 0.3 mg/kg i.p., 60 min before test, 5-min session
[7] = 1 mg/kg i.p., 60 min before test, 5-min session
[8] = 3 mg/kg i.p., 60 min before test, 5-min session

## CN1CCN(c2nc(N)nc(CN3C(=O)NC(C)(c4ccc5ccccc5c4)C3=O)n2)CC1 (stereo not drawn) [KMP-10, 3-((4-amino-6-(4-methylpiperazin-1-yl)-1,3,5-triazin-2-yl)methyl)-5-methyl-5-(naphthalen-2-yl)imidazolidine-2,4-dione]
5-HT6
  Ki: 0.087 µM
CYP3A4; highest used dose of 25 µM
  Effect on CYP3A4 activity: slight stimulation effect
CYP3A4; summary in comparison to SUVN-502
  Influence on CYP3A4: almost no influence
[1]
  HEK-293 cells viability: no effect
[2]
  Amount of calories consumed: significantly reduced
  Water intake: significantly lower
[3]
  Anxiolytic-like effects in Vogel-conflict test: confirmed
5-HT1A
  Ki: 14.2 µM
5-HT2A
  Ki: 17.2 µM
[4]
  QPlogBB: −0.92
[5]; [6]
  Total distance: 3240 ± 209 cm
  X Ambulation: 116 ± 18
  Y Ambulation: 98 ± 20
[5]; [7]
  Total distance: 4558 ± 205 cm
  X Ambulation: 152 ± 17
  Y Ambulation: 63 ± 12
[5]; [8]
  Total distance: 3881 ± 298 cm
  X Ambulation: 131 ± 18
  Y Ambulation: 133 ± 25
[5]; rats, doses of 1 and 3 mg/kg i.p., 60 min before test
  Anxiolytic-like activity in EPM test: showed anxiolytic-like activity
[5]; rats, i.p.
  Locomotor activity in EPM test: no changes
[5]; rats, i.p., 5-min session, ANOVA F(3,22) = 15.774, p < 0.0001
  Percentage of time spent in the open arms: increased
[5]; rats, i.p., 5-min session, ANOVA F(3,22) = 17.100, p < 0.0001
  Time spent in the open arms: increased
[5]; rats, i.p., 5-min session, ANOVA p < 0.01
  Distance travelled in the open arms: increased
